Data on 3 compounds can be found in patent US10544159B2, “Artemisinin derivatives, methods for their preparation and their use as antimalarial agents” (priority 2012, dated 2020).

Series [1] concerns the target P450 variant FL#62 (SEQ ID NO. 8) (Priestia megaterium, UniProt P14779, A181T/A185V/A198V/A291V/A83V/E253G/F206C/F82S/F88A/H237Q/L354V/P143S/R256S/S227R/T176I/V79A). The note with it: 0.5 mM substrate, 1 μM FL#62, 12 hours. As to the method: Reaction conditions were: 0.5 mM substrate, 1 μM FL#62 (SEQ ID NO: 8), 2 μM PTDH, 100 μM NADP^+, and 50 mM sodium phosphite in potassium phosphate buffer (50 mM, pH 8.0). After 12 hours, the hydroxylation products formed in these reactions were extracted with dichloromethane and quantified by HPLC and LC-MS.

For series [2], the target named is wild-type P450BM3 (Priestia megaterium, UniProt P14779). The note with it: fatty acid laurate with wild-type P450BM3; read-out: equilibrium dissociation constant; cited from earlier work.
Chain of wild-type P450BM3 (P14779 whole entry): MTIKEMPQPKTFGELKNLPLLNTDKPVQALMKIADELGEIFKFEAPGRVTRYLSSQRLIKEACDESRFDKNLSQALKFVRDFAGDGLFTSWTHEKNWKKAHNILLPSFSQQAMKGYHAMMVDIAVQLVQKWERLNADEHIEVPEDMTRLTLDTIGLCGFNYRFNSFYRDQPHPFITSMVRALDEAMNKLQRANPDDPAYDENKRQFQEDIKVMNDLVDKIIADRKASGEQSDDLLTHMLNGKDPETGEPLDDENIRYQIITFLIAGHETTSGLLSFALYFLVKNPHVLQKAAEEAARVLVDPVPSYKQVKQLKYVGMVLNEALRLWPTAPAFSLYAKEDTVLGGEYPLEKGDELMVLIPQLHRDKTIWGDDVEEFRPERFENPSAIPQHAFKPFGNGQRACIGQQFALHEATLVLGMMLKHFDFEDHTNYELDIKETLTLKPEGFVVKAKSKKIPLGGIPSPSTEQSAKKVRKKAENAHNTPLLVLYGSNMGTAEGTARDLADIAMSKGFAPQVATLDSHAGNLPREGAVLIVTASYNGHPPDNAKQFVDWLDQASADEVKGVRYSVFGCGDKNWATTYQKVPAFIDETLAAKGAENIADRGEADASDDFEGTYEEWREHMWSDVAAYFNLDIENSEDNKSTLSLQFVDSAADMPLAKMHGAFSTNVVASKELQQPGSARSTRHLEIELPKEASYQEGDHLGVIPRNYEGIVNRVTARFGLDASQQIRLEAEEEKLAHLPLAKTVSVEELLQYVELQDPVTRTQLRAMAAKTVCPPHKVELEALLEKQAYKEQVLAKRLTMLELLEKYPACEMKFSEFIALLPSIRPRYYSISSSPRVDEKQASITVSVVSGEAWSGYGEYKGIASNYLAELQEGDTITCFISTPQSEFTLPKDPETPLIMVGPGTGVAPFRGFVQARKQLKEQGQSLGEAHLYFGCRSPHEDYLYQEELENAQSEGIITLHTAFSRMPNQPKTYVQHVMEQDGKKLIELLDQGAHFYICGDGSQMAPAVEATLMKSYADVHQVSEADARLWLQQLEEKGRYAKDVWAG
In series [3] the test system is P. berghei ANKA. The experiment in a line: Antimalarial activity in Plasmodium berghei-infected mice. The format is in vivo. Also on record: fold higher survival rate than in the absence of treatment: concentration or dose not given beside the values. The conditions noted are these: male C57BL6 mice, after day 7. Here is the method: Briefly, asynchronous P. falciparum (strain 3d7) cultures were maintained at 37° C. at >10% parasitemia in fresh human red blood cells (2% hematocrit) in complete malaria medium. After 4 days (i.e., after 2 replicative parasitic cycles) flasks were synchronized with 5% sorbitol. 72 hours after synchronization, cells were plated and treated with the artemisinin derivatives at various concentrations. After 48 hours of incubation, the cells were lysed and labeled with SybrGreen and fluorescence emission was measured (excitation at 485 nm, emission at 530 nm). […] For the in vivo studies, male C57BL6 mice (6-8 weeks old) were infected with 0.7×10^5 P. berghei ANKA iRBCs and then treated with intraperitoneal injections of the compounds starting from day 3-5 post infection. A set of mice was left untreated and served as negative control. Survival was monitored and parasitemia determined SYBR-green (SYBRGr) staining of infected red blood cells and subsequent flow cytometric analysis.

Chain of P450 variant FL#62 (SEQ ID NO. 8) (P14779 other isoform, or with tags, fused parts or gaps with the stated changes): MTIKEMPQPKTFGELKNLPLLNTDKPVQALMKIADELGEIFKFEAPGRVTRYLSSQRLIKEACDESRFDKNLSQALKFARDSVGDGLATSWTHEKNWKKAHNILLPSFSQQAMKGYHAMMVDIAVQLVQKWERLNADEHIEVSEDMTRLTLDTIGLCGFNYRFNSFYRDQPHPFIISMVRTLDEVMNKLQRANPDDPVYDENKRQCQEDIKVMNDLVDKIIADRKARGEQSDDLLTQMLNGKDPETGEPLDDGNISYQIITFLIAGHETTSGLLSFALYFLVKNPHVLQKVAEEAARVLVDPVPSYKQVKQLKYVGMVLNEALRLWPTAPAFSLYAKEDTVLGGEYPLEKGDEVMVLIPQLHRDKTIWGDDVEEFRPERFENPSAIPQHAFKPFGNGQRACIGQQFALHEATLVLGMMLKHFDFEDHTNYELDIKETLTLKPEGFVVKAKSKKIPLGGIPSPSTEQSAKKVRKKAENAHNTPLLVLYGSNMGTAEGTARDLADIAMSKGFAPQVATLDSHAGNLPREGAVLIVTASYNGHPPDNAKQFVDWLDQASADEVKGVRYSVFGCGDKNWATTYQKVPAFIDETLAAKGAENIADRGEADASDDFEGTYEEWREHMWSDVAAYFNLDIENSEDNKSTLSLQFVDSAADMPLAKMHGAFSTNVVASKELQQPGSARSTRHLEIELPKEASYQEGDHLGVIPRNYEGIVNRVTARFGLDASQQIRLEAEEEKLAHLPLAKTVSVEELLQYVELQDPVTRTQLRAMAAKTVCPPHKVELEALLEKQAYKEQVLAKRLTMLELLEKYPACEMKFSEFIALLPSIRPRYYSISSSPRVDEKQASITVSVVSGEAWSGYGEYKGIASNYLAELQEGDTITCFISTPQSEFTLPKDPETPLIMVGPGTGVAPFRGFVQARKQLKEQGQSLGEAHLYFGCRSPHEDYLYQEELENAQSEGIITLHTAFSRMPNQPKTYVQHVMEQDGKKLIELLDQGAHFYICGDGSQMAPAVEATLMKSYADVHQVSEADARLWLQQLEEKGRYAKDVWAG

On to `COC(=O)CCC(=O)O[C@@H]1O[C@@H]2O[C@@]3(C)CC[C@H]4[C@H](C)CC[C@@H]([C@H]1C)[C@@]24OO3` [artesunate methyl ester], for which the “catalytic activity relative to that displayed in the presence of artemisinin” value in series [1] was “ca. 80%”.
Turning to `CCCCCCCCCCCC(=O)O` [laurate], the Kd in series [2] is 270 µM.
With `CC1C(=O)OC2OC3(C)CCC4C(C)[C@H](F)CC1C24OO3` (stereo partly drawn) [Compound 5, 7(R)-fluoro-artemisinin], the survival rate in series [3] (intraperitoneal injections starting from day 3-5 post infection) was determined as 80%. For the same compound, the “fold higher survival rate than in the absence of treatment” value in series [3] (intraperitoneal) worked out at 2 fold.
